# Experiments:
# Assay type in all cases: in vivo
# [1] = test system: CASSIA OBTUSIFOLIA, L.; experiment: Postemergence herbicidal evaluation, CASOB (Sicklepod); parameters: key to CASOB rating / Herbicidal effect rating, CASOB / CASOB: 0-9 visual rating scale vs untreated control; settings: for CASOB, herbicide rating (0-9): rated four to five weeks after treatment, averaged
# How it was run: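 Ratings (0-9) reflect visual stand, vigor, malformation, size and chlorosis compared with untreated plants, assessed 4-5 weeks after postemergence spraying. Treatment was applied to roughly two-week-old seedlings at about 0.125-0.500 kg/ha in acetone/water with 0.5% Tween 20; replicate tests were averaged.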
# [2] = test system: TRITICUM AESTIVUM, CV. APOLLO; experiment: Postemergence herbicidal evaluation, TRZAWO (Wheat, Winter, CV. APOLLO); settings: for TRZAWO, herbicide rating (0-9): crop, rated four to five weeks after treatment, averaged
# How it was run: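 This greenhouse postemergence test applied compounds to roughly two-week-old wheat seedlings grown in jiffy flats. The spray solution was 50/50 acetone/water with 0.5% TWEEN®20, a polyoxyethylene sorbitan monolaurate, sprayed from a nozzle run at 40 psi. After four to five weeks of standard greenhouse care, injury was scored from 0 to 9 by comparing stand, vigor, malformation, size, chlorosis and overall appearance with a control. Multiple tests were averaged.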
# [3] = test system: ZEA MAYS L.; experiment: Postemergence herbicidal evaluation, ZEAMX (Corn, Field)
# How it was run: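 This greenhouse postemergence test treated corn plants about two weeks old. Compounds in a 50/50 acetone/water mixture with 0.5% TWEEN®20 were applied through a spray nozzle at 40 psi. After four to five weeks, injury was scored 0-9 against an untreated control, judging stand, vigor, malformation, size, chlorosis and overall appearance. Repeated tests were averaged.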
# [4] = test system: ABUTILON THEOPHRASTI, MEDIC.; experiment: Postemergence herbicidal evaluation, ABUTH (Velvetleaf); settings: for ABUTH, herbicide rating (0-9): rated four to five weeks after treatment, averaged
# How it was run: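 This postemergence herbicide test used two-week-old velvetleaf seedlings grown in jiffy flats. Each compound was sprayed at 40 psi as a dispersion in 50/50 acetone/water with 0.5% TWEEN®20 surfactant. Plants then received routine greenhouse care. After four to five weeks, injury was scored visually on a 0-9 scale against a control, and replicate tests were averaged.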
# [5] = test system: ORYZA SATIVA, L. TEBONNET; experiment: Rice tolerance to post-transplant applications under flooded paddy conditions, ORYSAT (Rice, Tebonnet); settings: for Herbicidal effect rating, ORYSAT: post-transplant rice, 3-4 weeks after treatment; for ORYSAT: post-transplanted rice
# How it was run: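 Visual 0-9 rating against untreated control (stand, vigor, malformation, size, chlorosis, overall appearance), taken 3-4 weeks after treatment. Flooded silt loam, water at 1.5-3 cm; two 10-day-old seedlings per pot; compound applied to flooded soil surface 3 days post-transplant at ~0.5-0.063 kg/ha.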
# [6] = test system: AMBROSIA ARTEMISIIFOLIA, L.; experiment: Postemergence herbicidal evaluation, AMBEL (Ragweed, Common); settings: for AMBEL, herbicide rating (0-9): rated four to five weeks after treatment, averaged
# How it was run: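 Postemergence herbicidal activity on AMBEL (common ragweed) was assessed on two-week-old seedlings grown in jiffy flats. Treatment solutions of 50/50 acetone/water with 0.5% TWEEN®20 surfactant were sprayed at 40 psi. After four to five weeks in the greenhouse, plants were scored 0-9 against a control for stand, vigor, malformation, size, chlorosis and overall appearance, with multiple tests averaged.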
# [7] = test system: ECHINOCHLOA CRUS-GALLI, (L) BEAU; experiment: Postemergence herbicidal evaluation, ECHCG (Barnyardgrass); parameters: key to ECHCG rating / Herbicidal effect rating, ECHCG / ECHCG: 0-9 visual rating scale vs untreated control
# How it was run: (§1)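 Each value is a 0–9 visual rating of plant appearance compared with control, recorded 4–5 weeks after a 0.125–0.500 kg/ha spray, with multiple tests averaged.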
# [8] = test system: SETARIA VIRIDIS, (L) BEAU; experiment: Postemergence herbicidal evaluation, SETVI (Foxtail, Green); parameters: key to SETVI rating / Herbicidal effect rating, SETVI / SETVI: 0-9 visual rating scale vs untreated control
# How it was run: as §1
# [9] = test system: IPOMOEA SPP.; experiment: Postemergence herbicidal evaluation, IPOSS (Morningglory spp.); settings: for IPOSS, herbicide rating (0-9): rated four to five weeks after treatment, averaged
# How it was run: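 In this greenhouse postemergence herbicide test on Ipomoea spp. (morningglory), compounds in 50/50 acetone/water with 0.5% TWEEN®20 were sprayed at 40 psi onto seedlings about two weeks old grown in jiffy flats. After four to five weeks, injury was scored on a 0-9 scale covering stand, vigor, malformation, size, chlorosis and overall appearance versus control, with repeat tests averaged.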
# [10] = test system: GALIUM APARINE; experiment: Postemergence herbicidal evaluation, GALAP (Galium); parameters: key to GALAP rating / Herbicidal effect rating, GALAP / GALAP: 0-9 visual rating scale vs untreated control; settings: for GALAP, herbicide rating (0-9): rated four to five weeks after treatment, averaged
# How it was run: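 In this postemergence greenhouse test, two-week-old Galium aparine seedlings grown in jiffy flats received a 40 psi spray of compound in acetone/water (50/50) with 0.5% TWEEN®20 surfactant. After four to five weeks, stand, vigor, malformation, size, chlorosis and overall appearance were compared with untreated controls on a 0-9 scale, averaging multiple tests.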
# [11] = test system: CHENOPODIUM ALBUM, L.; experiment: Postemergence herbicidal evaluation, CHEAL (Lambsquarters, Common)
# How it was run: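 Postemergence herbicidal activity on Chenopodium album was tested by spraying two-week-old seedlings grown in jiffy flats with compound in acetone/water (50/50) plus 0.5% TWEEN®20, using a 40 psi nozzle. Four to five weeks after treatment, stand, vigor, malformation, size, chlorosis and overall appearance were scored 0-9 relative to controls, with repeat tests averaged.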
smiles,measurement,setting,value
"COC(=O)Cn1c(=O)n(C)c(=O)n(-c2cc(Oc3c(F)cc(C(F)(F)F)cc3Cl)ccc2[N+](=O)[O-])c1=O [Compound 16, Methyl 3-{5-[(2-chloro-α,α,α,6-tetrafluoro-p-tolyl)oxy]-2-nitrophenyl}tetrahydro-5-methyl-2,4,6-trioxo-s-triazine-1(2H)-acetate]",CASOB,[1]; Rate 0.008 kg/ha,5.5
same,CASOB,[1]; Rate 0.016 kg/ha,8.7
same,CASOB,[1]; Rate 0.031 kg/ha,9.0
same,CASOB,[1]; Rate 0.063 kg/ha,8.3
same,CASOB,[1]; Rate 0.125 kg/ha,9.0
same,"CASOB, herbicide rating (0-9)",[1]; Rate 0.125 kg/ha,9.0
same,"CASOB, herbicide rating (0-9)",[1]; Rate 0.250 kg/ha,9.0
same,"CASOB, herbicide rating (0-9)",[1]; Rate 0.500 kg/ha,9.0
same,TRZAWO,[2]; Rate 0.008 kg/ha,4.5
same,TRZAWO,[2]; Rate 0.016 kg/ha,4.7
same,TRZAWO,[2]; Rate 0.031 kg/ha,6.4
same,TRZAWO,[2]; Rate 0.063 kg/ha,7.4
same,TRZAWO,[2]; Rate 0.125 kg/ha,8.4
same,"TRZAWO, herbicide rating (0-9)",[2]; Rate 0.125 kg/ha,8.4
same,"TRZAWO, herbicide rating (0-9)",[2]; Rate 0.250 kg/ha,8.4
same,"TRZAWO, herbicide rating (0-9)",[2]; Rate 0.500 kg/ha,8.4
same,ZEAMX,[3]; Rate 0.008 kg/ha,2.0
same,ZEAMX,[3]; Rate 0.016 kg/ha,2.4
same,ZEAMX,[3]; Rate 0.031 kg/ha,3.0
same,ZEAMX,[3]; Rate 0.063 kg/ha,3.4
same,ZEAMX,[3]; Rate 0.125 kg/ha,4.2
same,ABUTH,[4]; Rate 0.008 kg/ha,5.5
same,ABUTH,[4]; Rate 0.016 kg/ha,8.3
same,ABUTH,[4]; Rate 0.031 kg/ha,8.0
same,ABUTH,[4]; Rate 0.063 kg/ha,8.3
same,ABUTH,[4]; Rate 0.125 kg/ha,9.0
same,"ABUTH, herbicide rating (0-9)",[4]; Rate 0.125 kg/ha,9.0
same,"ABUTH, herbicide rating (0-9)",[4]; Rate 0.250 kg/ha,9.0
same,"ABUTH, herbicide rating (0-9)",[4]; Rate 0.500 kg/ha,9.0
same,"Herbicidal effect rating, ORYSAT",[5]; 0.063 kg/ha,3.5
same,"Herbicidal effect rating, ORYSAT",[5]; 0.125 kg/ha,5.0
same,"Herbicidal effect rating, ORYSAT",[5]; 0.250 kg/ha,7.0
same,"Herbicidal effect rating, ORYSAT",[5]; 0.500 kg/ha,6.0
same,ORYSAT,[5]; Rate 0.031 kg/ha,3.0
same,ORYSAT,[5]; Rate 0.063 kg/ha,3.5
same,ORYSAT,[5]; Rate 0.125 kg/ha,5.0
same,ORYSAT,[5]; Rate 0.250 kg/ha,7.0
same,AMBEL,[6]; Rate 0.008 kg/ha,7.0
same,AMBEL,[6]; Rate 0.016 kg/ha,9.0
same,AMBEL,[6]; Rate 0.031 kg/ha,9.0
same,AMBEL,[6]; Rate 0.063 kg/ha,9.0
same,AMBEL,[6]; Rate 0.125 kg/ha,9.0
same,"AMBEL, herbicide rating (0-9)",[6]; Rate 0.125 kg/ha,9.0
same,"AMBEL, herbicide rating (0-9)",[6]; Rate 0.250 kg/ha,9.0
same,"AMBEL, herbicide rating (0-9)",[6]; Rate 0.500 kg/ha,9.0
same,ECHCG,[7]; Rate 0.008 kg/ha,0.0
same,ECHCG,[7]; Rate 0.016 kg/ha,0.5
same,ECHCG,[7]; Rate 0.031 kg/ha,0.7
same,ECHCG,[7]; Rate 0.063 kg/ha,1.7
same,ECHCG,[7]; Rate 0.125 kg/ha,3.7
same,SETVI,[8]; Rate 0.008 kg/ha,0.0
same,SETVI,[8]; Rate 0.016 kg/ha,0.0
same,SETVI,[8]; Rate 0.031 kg/ha,0.0
same,SETVI,[8]; Rate 0.063 kg/ha,0.8
same,SETVI,[8]; Rate 0.125 kg/ha,1.3
same,IPOSS,[9]; Rate 0.008 kg/ha,6.0
same,IPOSS,[9]; Rate 0.016 kg/ha,7.0
same,IPOSS,[9]; Rate 0.031 kg/ha,7.0
same,IPOSS,[9]; Rate 0.063 kg/ha,8.3
same,IPOSS,[9]; Rate 0.125 kg/ha,9.0
same,"IPOSS, herbicide rating (0-9)",[9]; Rate 0.125 kg/ha,9.0
same,"IPOSS, herbicide rating (0-9)",[9]; Rate 0.250 kg/ha,9.0
same,"IPOSS, herbicide rating (0-9)",[9]; Rate 0.500 kg/ha,9.0
same,GALAP,[10]; Rate 0.008 kg/ha,4.5
same,GALAP,[10]; Rate 0.016 kg/ha,6.0
same,GALAP,[10]; Rate 0.031 kg/ha,8.0
same,GALAP,[10]; Rate 0.063 kg/ha,9.0
same,GALAP,[10]; Rate 0.125 kg/ha,9.0
same,"GALAP, herbicide rating (0-9)",[10]; Rate 0.125 kg/ha,9.0
same,"GALAP, herbicide rating (0-9)",[10]; Rate 0.250 kg/ha,9.0
same,"GALAP, herbicide rating (0-9)",[10]; Rate 0.500 kg/ha,9.0
same,CHEAL,[11]; Rate 0.008 kg/ha,0.0
same,CHEAL,[11]; Rate 0.016 kg/ha,1.5
same,CHEAL,[11]; Rate 0.031 kg/ha,3.0
same,CHEAL,[11]; Rate 0.063 kg/ha,3.7
same,CHEAL,[11]; Rate 0.125 kg/ha,6.5
"COC(=O)Cn1c(=O)n(C)c(=O)n(-c2cc(Oc3ccccn3)ccc2[N+](=O)[O-])c1=O [Compound 38, Methyl tetrahydro-3-methyl-5-[2-nitro-5-(2-pyridyloxy)phenyl]-2,4,6-trioxo-s-triazine-1(2H)-acetate]",CASOB rating,[1]; Rate 0.500 kg/ha,0.0
same,TRZAWO rating,[2]; Rate 0.500 kg/ha,0.0
same,ZEAMX rating,[3]; Rate 0.500 kg/ha,0.0
same,ABUTH rating,[4]; Rate 0.500 kg/ha,0.0
same,"Herbicidal effect rating, ORYSAT",[5]; 0.500 kg/ha,0.0
same,AMBEL rating,[6]; Rate 0.500 kg/ha,0.0
same,ECHCG rating,[7]; Rate 0.500 kg/ha,0.0
same,SETVI rating,[8]; Rate 0.500 kg/ha,0.0
same,IPOSS rating,[9]; Rate 0.500 kg/ha,0.0
same,GALAP rating,[10]; Rate 0.500 kg/ha,0.0
same,CHEAL rating,[11]; Rate 0.500 kg/ha,0.0

# Source: patent EP0745595A1, “3-(3-Aryloxyphenyl)-1-(substituted methyl)-s-triazine-2,4,6-oxo or thiotrione herbicidal agents” (American Cyanamid Company, priority 1995, dated 1996)
